Measurements: PMC11129182, “Development of Inhibitors, Probes, and PROTAC Provides a Complete Toolbox to Study PARK7 in the Living Cell” (Journal of Medicinal Chemistry, 2024)
“Also recorded” adds a separate entry of the source. Where two headings read alike, the source gives them in different places.

What was measured:
[1] = target: T1, PARK7 (Homo sapiens, UniProt Q99497); assay: High-throughput screen of the crude compound library, PARK7 fluorescence polarization (FP) assay with FP reagent JYQ-107; format: biochemical; conditions: for inhibition at 1.25 µM: read-out: HTS FP assay %Inhibition (1.25 µM)
T1 sequence (Q99497 1-189): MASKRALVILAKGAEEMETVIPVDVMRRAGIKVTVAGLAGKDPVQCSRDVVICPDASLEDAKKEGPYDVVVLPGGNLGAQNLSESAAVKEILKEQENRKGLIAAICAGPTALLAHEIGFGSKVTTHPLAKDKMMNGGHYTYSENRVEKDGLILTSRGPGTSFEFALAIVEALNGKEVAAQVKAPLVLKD

[2] = target: T1, PARK7; assay: Hit validation and pure-compound testing in the PARK7 FP assay with JYQ-107; format: biochemical; conditions: for inhibition at 0.25 µM: read-out: % Inhibition 0.25 µM; for inhibition at 0.5 µM: read-out: % Inhibition 0.5 µM
[3] = tested on: DUBs; assay: Activity-based DUB profiling with Rho-Ub-PA probe in HEK293T cells; format: cell-based, human; conditions: 5 µM, 24 h
Experimental: Figure S3. Activity evaluation of inhibitors against DUBs in HEK293T cells. (A ) Inhibitors from structure modification. (B) Inhibitors from HTS. HEK293T cells were […]
incubation with Rho- Ub-PA probe for 30 min at 37 °C. Samples were resolved by SDS - […]
and visualized by fluorescence scanning on a Typhoon FLA 9500 (GE Healthcare Life […]
Nitrocellulose membranes and Western blot analysis.
(§1) (1 picture or pasted object on this page, not shown here)

[4] = target: T1, PARK7; assay: Cell-based competition assay with probe JYQ-92 in HEK293T cells; conditions: 24 h
Experimental: Samples were resolved by SDS-PAGE and analyzed by fluorescence scanning and Western blotting (Figure 2B). The target engagement of cellular PARK7 is reflected by the disappearance of the PARK7 labeling band in the fluorescence gel scan and by the loss of the shifted probe-labeled PARK7 band in the Western blot.
HEK293T cells were treated with the indicated concentrations of indicated inhibitors for indicated incubation time.
Figure S1. Assessment of the cell permeability of JYQ -88. (A) Structure of JYQ-92.
(B) Target engagement of JYQ-88 in HEK293T cells. HEK293T cells were incubated […]
with PARK7 probe JYQ-92 fo r 1 h at 37 °C. The reactions were stopped by the addition of NuPAGE™ LDS sample buffer (4x). Samples were resolved by SDS -PAGE using […]
fluorescence scanning on a Typhoon FLA 9500 (GE Healthcare Life Sciences) using […]
The disappearance of the JYQ-92-labeled band in […]
of JYQ-88 is used as a measurement of cellular PARK7 engagement with JYQ -88.
as §1

[5] = target: T1, PARK7; conditions: read-out: IC50 (nM) DiFUMAc; 0.1 μM PARK7, 1 h preincubation, 300 μM DiFMUAc
Experimental: Compounds were transferred using a Labcyte Echo550 acoustic dispenser to obtain a 12-point serial dilution of 0.001–100 μM. Next, PARK7 (15 μL, final concentration 0.1 μM) was dispensed with a Biotek MultiFlowFX liquid dispenser and incubated for 1 h, followed by dispensing the substrate DiFMUAc (5 μL, final concentration 300 μM). The fluorescence intensity (FI) signal was monitored on a BMG Labtech PHERAstar plate reader (λex/em 350/450 nm) for 1 h.

[6] = target: T1, PARK7; assay: Probe labeling of endogenous PARK7 in cells (HEK293T, A549); format: cell-based; conditions: for labeling of PARK7 in cells / cellular PARK7 labeling efficiency over time: 5 μM; for labeling of PARK7 in cells: 24 h; for cellular PARK7 labeling efficiency over time: A549 cells, indicated time points
Experimental: To further investigate the ability of these probes to visualize PARK7 in cells, HEK293T and A549 cells were incubated with 5 μM of these probes for 24 h, followed by cell lysis, SDS-PAGE, fluorescence scanning, and immunostaining (Supporting Information Figure S7). […] We also observed a band shift of the PARK7 protein in the samples treated with JYQ-192, JYQ-196, and JYQ-197 by immunoblot against PARK7 in A549 cells. […] Therefore, we further investigated JYQ-192, JYQ-196, and JYQ-197. To characterize their cell permeability, A549 cells were incubated with 5 μM final concentration of these probes for the indicated time points, followed by confocal microscopy and by cell lysis, SDS-PAGE, fluorescence scanning, and immunostaining. All three probes already entered the cells after 1 h incubation (Supporting Information Figure S8A). […] Besides PARK7, we observed extra bands in the fluorescence scan for both HEK293T and A549 cells and a very strong band labeling between 55 and 75 kDa in A549 cells with a 5 μM final concentration of all probes.
Despite the fact that probe JYQ-196 outperformed SulfoCy5 probes JYQ-192 and JYQ-197 in terms of the cellular PARK7 labeling efficiency, this probe still lacked specificity toward PARK7. PARK7 is known to form dimers, trimers, and even high-molecular-weight complexes under nonreducing conditions.[29],[30] […] To investigate further whether lower concentrations of JYQ-196 can decrease unspecific labeling, HEK293T and A549 cells were incubated with increased concentrations (0–10 μM) of JYQ-196 for 4 h, followed by cell lysis, SDS-PAGE, fluorescence scanning, and immunostaining (Figure 4C).
Oligos used to knockdown PARK7 were purchased from Dharmacon (Cat#: MQ-005984-00-0002). Silencing was performed in HEK293T and A549 cells as follows: for a 24-well plate format, 50 μL of siRNA (500 nM stock) was incubated with 1 μL of Dharmafect reagent 1 (Dharmacon) diluted in 50 μL of medium without supplements (total volume of 100 μL of transfection mix) with gentle shaking for 20 min at room temperature (RT). A total of 30 × 10^3 HEK293T or 50 × 10^3 cells were added to transfection mixes to a total volume of 500 μL per well and cultured for 48 h prior to incubation with 5 μM final concentration of JYQ-196 for 4 h.
HEK293T or A549 cells were incubated with indicated concentration of the probes for the indicated time points, followed by cell lysis and adding loading buffer (4x).

[7] = target: T1, PARK7; assay: Probe labeling of purified recombinant PARK7; conditions: 1 μM PARK7, 1 h, 37 °C
Experimental: The ability of these probes to label and visualize PARK7 activity in vitro was evaluated by treating recombinant human PARK7 protein (1 μM) with a concentration series of the probes for 1 h at 37 °C, followed by SDS-PAGE analysis under nondenaturing conditions (without boiling and β-mercaptoethanol).
The assay was conducted in Tris-buffer (50 mM Tris-HCl, 150 mM NaCl, 2 mM TCEP, pH 7.5). PARK7 (1 μM final concentration) was incubated with different concentrations (0, 0.1, 0.5, 1, 2, 5, and 10 μM) of the indicated probes for 1 h at 37 °C. After completing the incubation time, all of the reactions were stopped by adding NuPAGE LDS sample buffer (4x).

[8] = 1.25 µM, crude compound library

Row | Compound | inhibition at 0.25 µM ([2]; crude compounds) | inhibition at 0.5 µM ([2]; crude compounds, 0.5 µM) | inhibition at 1 µM ([2]; crude compounds) | inhibition at 0.25 µM ([2]; pure compounds) | inhibition at 1 µM ([2]; pure compounds) | labeling of PARK7 in cells ([6]; HEK293T and A549 cells) | probe concentration giving complete labeling of recombinant PARK7 (Coomassie band shift) [7] | inhibition of DUBs in cells [3] | further results
1 | N#CN1CC[C@@H](C(=O)Nc2nc3c(s2)CN(C(=O)c2cnc(-c4cccs4)s2)CC3)C1 [Compound 108, (R)-1-Cyano-N-(5-(2-(thiophen-2-yl)thiazole-5-carbonyl)-4,5,6,7-tetrahydrothiazolo[5,4-c]pyridin-2-yl)pyrrolidine-3-carboxamide] | 64.2% | 85.7% | 98.5% | 67.9% | 93.1% | – | – | showed inhibition of one or more DUBs, mainly UCHL1 | inhibition at 1.25 µM [1, 8]: 90.8%
2 | Cc1csc(-c2cccc(C(=O)N3CCc4nc(NC(=O)[C@@H]5CCN(C#N)C5)sc4C3)c2)n1 [Compound 334, (R)-1-Cyano-N-(5-(3-(4-methylthiazol-2-yl)benzoyl)-4,5,6,7-tetrahydrothiazolo[5,4-c]pyridine-2-yl)pyrrolidine-3-carboxamide] | 68.5% | 86.9% | 97.3% | 84.2% | 95.6% | – | – | showed inhibition of one or more DUBs, mainly UCHL1 | inhibition at 1.25 µM [1, 8]: 89.4%
3 | CC(=O)N1CCN(S(=O)(=O)c2cccc(C(=O)N3CCc4nc(NC(=O)[C@@H]5CCN(C#N)C5)sc4C3)c2)CC1 [Compound 336, (R)-N-(5-(3-((4-Acetylpiperazin-1-yl)sulfonyl)benzoyl)-4,5,6,7-tetrahydrothiazolo[5,4-c]pyridin-2-yl)-1-cyanopyrrolidine-3-carboxamide] | 76.8% | 91.5% | 98.3% | ~100% | 98.5% | – | – | did not show interference with the activity of any DUB | inhibition at 1.25 µM [1, 8]: 91.8%; % Inhibition 0.25 µM ([2]; pure compounds): 87.6%; concentration from which PARK7 is engaged ([4]; HEK293T cells, 0.1–5 μM dilution series): 1 µM
4 | Cc1cc(C(=O)N2CCc3nc(NC(=O)[C@@H]4CCN(C#N)C4)sc3C2)ccc1Br [Compound 415, (R)-N-(5-(4-Bromo-3-methylbenzoyl)-4,5,6,7-tetrahydrothiazolo[5,4-c]pyridin-2-yl)-1-cyanopyrrolidine-3-carboxamide] | 58% | 79.8% | 95.6% | 68.3% | 92.6% | – | – | showed inhibition of one or more DUBs, mainly UCHL1 | inhibition at 1.25 µM ([1]; 1.25 µM, crude compound library, FP reagent JYQ-107): 93.1%
5 | O=C1C(=O)N(CCc2ccccc2)c2ccc(F)cc21 [STK793590] | – | – | – | – | – | – | – | – | IC50 [5]: 130 nM
6 | (R)-N-(5-(3-(1,2,4-Oxadiazol-3-yl)benzoyl)-4,5,6,7-tetrahydrothiazolo[5,4-c]pyridin-2-yl)-1-cyanopyrrolidine-3-carboxamide [Compound 199] | – | – | – | – | – | – | – | showed inhibition of one or more DUBs, mainly UCHL1 | HTS FP assay %Inhibition (1.25 µM) [1, 8]: 95.3%; % Inhibition ([1]; HTS of crude compound library, sheet "SMILES+%Inh HTS"): 95.3%; % Inhibition 0.25 µM ([2]; crude compounds): 81.4%; % Inhibition 0.5 µM ([2]; crude compounds, 0.5 µM): 91.6%; % Inhibition 1 µM ([2]; crude compounds): 98.6%; % Inhibition 0.25 µM ([2]; pure compounds): 80.7%; % Inhibition 1 µM ([2]; pure compounds): 94.6%

Further lines, with some results ahead:

Row | inhibition at 0.25 µM ([2]; crude compounds) | inhibition at 0.5 µM ([2]; crude compounds, 0.5 µM) | inhibition at 1 µM ([2]; crude compounds) | inhibition at 0.25 µM ([2]; pure compounds) | inhibition at 1 µM ([2]; pure compounds) | labeling of PARK7 in cells ([6]; HEK293T and A549 cells) | probe concentration giving complete labeling of recombinant PARK7 (Coomassie band shift) [7] | Compound | inhibition of DUBs in cells [3] | further results
7 | – | – | – | 55.4% | 83.2% | – | – | N#CN1CC[C@@H](C(=O)Nc2nc3c(s2)CN(C(=O)CN=[N+]=[N-])CC3)C1 [JYQ-88, reference compound] | – | cellular PARK7 engagement of JYQ-88 ([4]; intact HEK293T cells, concentration series): did not show inhibition of PARK7 in cells; also recorded: poor cellular engagement; IC50 [5]: 120 nM
8 | – | – | – | – | – | inefficient labeling of cellular PARK7 | 5 µM | CC1=CC(C)=[N+]2C1=C(CCCCc1cn(CC(=O)N3CCN(S(=O)(=O)c4cccc(C(=O)N5CCc6nc(NC(=O)[C@@H]7CCN(C#N)C7)sc6C5)c4)CC3)nn1)c1c(C)cc(C)n1[B-]2(F)F [JYQ-191] | – | –
9 | – | – | – | – | – | clear band around 25 kDa | 2 µM | CC[N+]1=C(/C=C/C=C/C=C2/N(CCCCCC(=O)NCCCc3cn(CC(=O)N4CCN(S(=O)(=O)c5cccc(C(=O)N6CCc7nc(NC(=O)[C@@H]8CCN(C#N)C8)sc7C6)c5)CC4)nn3)c3ccc(S(=O)(=O)[O-])cc3C2(C)C)C(C)(C)c2cc(S(=O)(=O)O)ccc21 [JYQ-192] | – | cellular PARK7 labeling efficiency over time [6]: labeled a small portion of cellular PARK7 even after 24 h incubation
10 | – | – | – | – | – | clear band around 25 kDa | 2 µM | CC1=CC(C)=[N+]2C1=C(CCCCc1cn(-c3ccc(F)c(C(=O)N4CCc5nc(NC(=O)[C@@H]6CCN(C#N)C6)sc5C4)c3)nn1)c1c(C)cc(C)n1[B-]2(F)F [JYQ-196] | – | cellular PARK7 labeling efficiency over time [6]: complete labeling of cellular PARK7 after 4 h incubation; specificity of labeling (PARK7 siRNA depletion) ([6]; HEK293T and A549 cells, siPARK7 48 h, then 5 μM for 4 h): unspecific labeling of other proteins
11 | – | – | – | – | – | clear band around 25 kDa | 1 µM | CC[N+]1=C(/C=C/C=C/C=C2/N(CCCCCC(=O)NCCCc3cn(-c4ccc(F)c(C(=O)N5CCc6nc(NC(=O)[C@@H]7CCN(C#N)C7)sc6C5)c4)nn3)c3ccc(S(=O)(=O)O)cc3C2(C)C)C(C)(C)c2cc(S(=O)(=O)[O-])ccc21 [JYQ-197] | – | cellular PARK7 labeling efficiency over time [6]: labeled a small portion of cellular PARK7 even after 24 h incubation
